Literature values in patent US12311004B2, “Ophthalmic formulations and methods of use” (VISION SOLUTIONS, LLC, priority 2023, dated 2025).

Assays:
FHV-1 = details: low concentrations, in vitro
[1] = oral, cat

NCCCC[C@H](N)C(=O)O [L-lysine]
effect on the replication kinetics of the virus (FHV-1): no effect | daily intake at which arginine deficiency is likely to occur [1]: exceeding 80 g/kg
